Literature values as cited in PubChem BioAssay AID1259409 (Chemical Carcinogenesis Research Information System (CCRIS), 2018).

System: rodent chemically induced tumor inhibition, incidence and multiplicity
Test: CCRIS tumor inhibitor studies
Conditions: for tumour outcome (control, treated, inhibition, significance): Dose [Inhibitor]: 0

In the case of `C=CCSCC=C`, the “tumour outcome (control, treated, inhibition, significance)” value (Carcinogen: DIETHYLNITROSAMINE, 55-18-5, N-METHYL-N-NITROSOUREA, 684-93-5, N,N-DIBUTYLNITROSAMINE, 924-16-3, Carcinogen: DIETHYLNITROSAMINE, 55-18-5, N-METHYL-N-NITROSOUREA, 684-93-5, N,N-DIBUTYLNITROSAMINE, 924-16-3, 0.5% IN DIET BEGINNING POST CARCINOGEN TREATMENT AND CONTINUING TO WK 40 (STUDY DURATION: 40 WK), Route [Inhibitor]: ORAL, Species: RAT, Strain/Sex: F344/MALE, Target Tissue: Type of Lesion: LUNG: CARCINOMA, Dose [Carcinogen]: 100 MG/KG DIETHYLNITROSAMINE ONCE FOLLOWED BY 20 MG/KG N-METHYL-N-NITROSOUREA ON D 2, 5, 8 AND 11 THEN 0.05% N-N-DIBUTYL, Promoter: NONE USED) is listed as 3/16 (19%), 0/18 (0%), 100%, not calculated, the “tumour outcome (control, treated, inhibition, significance)” value (Carcinogen: DIETHYLNITROSAMINE, 55-18-5, N-METHYL-N-NITROSOUREA, 684-93-5, N,N-DIBUTYLNITROSAMINE, 924-16-3, Carcinogen: DIETHYLNITROSAMINE, 55-18-5, N-METHYL-N-NITROSOUREA, 684-93-5, N,N-DIBUTYLNITROSAMINE, 924-16-3, 0.5% IN DIET BEGINNING POST CARCINOGEN TREATMENT AND CONTINUING TO WK 40 (STUDY DURATION: 40 WK), Route [Inhibitor]: ORAL, Species: RAT, Strain/Sex: F344/MALE, Target Tissue: Type of Lesion: THYROID: ADENOMA, Dose [Carcinogen]: 100 MG/KG DIETHYLNITROSAMINE ONCE FOLLOWED BY 20 MG/KG N-METHYL-N-NITROSOUREA ON D 2, 5, 8 AND 11 THEN 0.05% N-N-DIBUTYL, Promoter: NONE USED) is listed as 8/16 (50%), 2/18 (11%), 78%, p<0.02 and the “tumour outcome (control, treated, inhibition, significance)” value (Carcinogen: DIETHYLNITROSAMINE, 55-18-5, N-METHYL-N-NITROSOUREA, 684-93-5, N,N-DIBUTYLNITROSAMINE, 924-16-3, Carcinogen: DIETHYLNITROSAMINE, 55-18-5, N-METHYL-N-NITROSOUREA, 684-93-5, N,N-DIBUTYLNITROSAMINE, 924-16-3, 0.5% IN DIET BEGINNING POST CARCINOGEN TREATMENT AND CONTINUING TO WK 40 (STUDY DURATION: 40 WK), Route [Inhibitor]: ORAL, Species: RAT, Strain/Sex: F344/MALE, Target Tissue: Type of Lesion: THYROID: CARCINOMA, Dose [Carcinogen]: 100 MG/KG DIETHYLNITROSAMINE ONCE FOLLOWED BY 20 MG/KG N-METHYL-N-NITROSOUREA ON D 2, 5, 8 AND 11 THEN 0.05% N-N-DIBUTYL, Promoter: NONE USED) is listed as 2/16 (13%), 0/18 (0%), 100%, not calculated. For the same compound, the “tumour outcome (control, treated, inhibition, significance)” value (Carcinogen: DIETHYLNITROSAMINE, 55-18-5, N-METHYL-N-NITROSOUREA, 684-93-5, N,N-DIBUTYLNITROSAMINE, 924-16-3, Carcinogen: DIETHYLNITROSAMINE, 55-18-5, N-METHYL-N-NITROSOUREA, 684-93-5, N,N-DIBUTYLNITROSAMINE, 924-16-3, 0.5% IN DIET BEGINNING POST CARCINOGEN TREATMENT AND CONTINUING TO WK 40 (STUDY DURATION: 40 WK), Route [Inhibitor]: ORAL, Species: RAT, Strain/Sex: F344/MALE, Target Tissue: Type of Lesion: URINARY BLADDER: CARCINOMA, Dose [Carcinogen]: 100 MG/KG DIETHYLNITROSAMINE ONCE FOLLOWED BY 20 MG/KG N-METHYL-N-NITROSOUREA ON D 2, 5, 8 AND 11 THEN 0.05% N-N-DIBUTYL, Promoter: NONE USED) was 1/16 (6%), 0/18 (0%), 100%, not calculated, the “tumour outcome (control, treated, inhibition, significance)” value (Carcinogen: DIETHYLNITROSAMINE, 55-18-5, N-METHYL-N-NITROSOUREA, 684-93-5 N,N-DIBUTYLNITROSAMINE, 924-16-3, Carcinogen: DIETHYLNITROSAMINE, 55-18-5, N-METHYL-N-NITROSOUREA, 684-93-5 N,N-DIBUTYLNITROSAMINE, 924-16-3, 0.5% IN DIET BEGINNING POST CARCINOGEN TREATMENT AND CONTINUING TO WK 40 (STUDY DURATION: 40 WK), Route [Inhibitor]: ORAL, Species: RAT, Strain/Sex: F344/MALE, Target Tissue: Type of Lesion: URINARY BLADDER: PAPILLOMA, Dose [Carcinogen]: 100 MG/KG DIETHYLNITROSAMINE ONCE FOLLOWED BY 20 MG/KG N-METHYL-N-NITROSOUREA ON D 2, 5, 8 AND 11 THEN 0.05% N-N-DIBUTYL, Promoter: NONE USED) was 4/16 (25%), 2/18 (11%), 56%, not calculated and the “tumour outcome (control, treated, inhibition, significance)” value (Carcinogen: DIETHYLNITROSAMINE, 55-18-5, N-METHYL-NITROSOUREA, 684-93-5, N,N'-DIMETHYLHYDRAZINE, 540-73-8, N-BUTYL-N-(4-HYDROX, Carcinogen: DIETHYLNITROSAMINE, 55-18-5, N-METHYL-NITROSOUREA, 684-93-5, N,N'-DIMETHYLHYDRAZINE, 540-73-8, N-BUTYL-N-(4-HYDROX, 200 MG/KG BW IN CORN OIL 3/WK FOR 6 WK BEGINNING POST CARCINOGEN TREATMENT (STUDY DURATION: 28 WK), Route [Inhibitor]: GAVAGE, Species: RAT, Strain/Sex: F344/MALE, Target Tissue: Type of Lesion: KIDNEY: NEPHROBLASTOMA, Dose [Carcinogen]: 100 MG/KG BW DEN ONCE, 20 MG/KG BW MNU ONCE ON D 2, 5, 8 AND 11, 40 MG/KG BW DMH ON D 14, 17, 20 AND 23, 0.05% BHBN I, Dose [Carcinogen]: 100 MG/KG BW DEN ONCE, 20 MG/KG BW MNU ONCE ON D 2, 5, 8 AND 11, 40 MG/KG BW DMH ON D 14, 17, 20 AND 23, 0.05% BHBN I, Promoter: NONE USED) was 5/20 (25%), 8/19 (42%), -68%, not calculated. The “tumour outcome (control, treated, inhibition, significance)” value (Carcinogen: DIETHYLNITROSAMINE, 55-18-5, N-METHYL-NITROSOUREA, 684-93-5, N,N'-DIMETHYLHYDRAZINE, 540-73-8, N-BUTYL-N-(4-HYDROX, Carcinogen: DIETHYLNITROSAMINE, 55-18-5, N-METHYL-NITROSOUREA, 684-93-5, N,N'-DIMETHYLHYDRAZINE, 540-73-8, N-BUTYL-N-(4-HYDROX, 200 MG/KG BW IN CORN OIL 3/WK FOR 6 WK BEGINNING POST CARCINOGEN TREATMENT (STUDY DURATION: 28 WK), Route [Inhibitor]: GAVAGE, Species: RAT, Strain/Sex: F344/MALE, Target Tissue: Type of Lesion: KIDNEY: RENAL CELL CARCINOMA, Dose [Carcinogen]: 100 MG/KG BW DEN ONCE, 20 MG/KG BW MNU ONCE ON D 2, 5, 8 AND 11, 40 MG/KG BW DMH ON D 14, 17, 20 AND 23, 0.05% BHBN I, Dose [Carcinogen]: 100 MG/KG BW DEN ONCE, 20 MG/KG BW MNU ONCE ON D 2, 5, 8 AND 11, 40 MG/KG BW DMH ON D 14, 17, 20 AND 23, 0.05% BHBN I, Promoter: NONE USED) was 1/20 (5%), 0/19 (0%), 100%, not calculated, the “tumour outcome (control, treated, inhibition, significance)” value (Carcinogen: N-NITROSOMETHYLBENZYLAMINE, 937-40-6, 10 MG/KG IN CORN OIL 1/WK FOR 5 WK BEGINNING 3 HR PRIOR TO CARCINOGEN TREATMENT (STUDY DURATION: 15 WK), Route [Inhibitor]: GAVAGE, Species: RAT, Strain/Sex: SPRAGUE-DAWLEY/MALE, Target Tissue: Type of Lesion: ESOPHAGUS: TUMOR, Dose [Carcinogen]: 3 MG/KG 1/WK FOR 5 WK, Promoter: NONE USED) was 96%, 90%, 6%, not significant and the “tumour outcome (control, treated, inhibition, significance)” value (Carcinogen: N-NITROSOMETHYLBENZYLAMINE, 937-40-6, 100 MG/KG IN CORN OIL 1/WK FOR 5 WK BEGINNING 3 HR PRIOR TO CARCINOGEN TREATMENT (STUDY DURATION: 15 WK), Route [Inhibitor]: GAVAGE, Species: RAT, Strain/Sex: SPRAGUE-DAWLEY/MALE, Target Tissue: Type of Lesion: ESOPHAGUS: TUMOR, Dose [Carcinogen]: 3 MG/KG 1/WK FOR 5 WK, Promoter: NONE USED) was 96%, 63%, 34%, p<0.05. The “tumour outcome (control, treated, inhibition, significance)” value (Carcinogen: N-NITROSOMETHYLBENZYLAMINE, 937-40-6, 200 MG/KG IN CORN OIL 1/WK FOR 5 WK BEGINNING POST CARCINOGEN TREATMENT (STUDY DURATION: 15 WK), Route [Inhibitor]: GAVAGE, Species: RAT, Strain/Sex: SPRAGUE-DAWLEY/MALE, Target Tissue: Type of Lesion: ESOPHAGUS: TUMOR, Dose [Carcinogen]: 3 MG/KG 1/WK FOR 5 WK, Promoter: NONE USED) was 96%, 96%, 0%, not significant, the outcome (Carcinogen: N-NITROSOMETHYLBENZYLAMINE, 937-40-6, Dose [Inhibitor]: 200 MG/KG BW IN CORN OIL 1/WK FOR 5 WK BEGINNING 3 HR PRIOR TO EACH CARCINOGEN DOSE (STUDY DURATION: 15 WK), Route [Inhibitor]: GAVAGE, Species: RAT, Strain/Sex: SPRAGUE-DAWLEY/MALE, Target Tissue: Type of Lesion: ESOPHAGUS: TUMOR, Dose [Carcinogen]: 3.5 MG/KG BW 1/WK FOR 5 WK, Promoter: NONE USED) was 79%, 0, 100%, p<0.001 and the “tumour outcome (control, treated, inhibition, significance)” value (Carcinogen: VINYL CARBAMATE, 15805-73-9, 8 UMOL IN 0.1 MOLAR STERILIZED POTASSIUM BUFFER ONCE 10 MIN PRIOR TO CARCINOGEN DOSE (STUDY DURATION: 22 WK), Route [Inhibitor]: GAVAGE, Species: MOUSE, Strain/Sex: ICR/FEMALE, Target Tissue: Type of Lesion: SKIN: PAPILLOMA, Dose [Carcinogen]: 5.8 UMOL IN 0.2 ML ACETONE ONCE, Promoter: 12-O-TETRADECANOYLPHORBOL 13-ACETATE, 16561-29-8) was 70%, 57%, 19%, not significant. For the same compound, the “tumour outcome (control, treated, inhibition, significance)” value (Carcinogen: VINYL CARBAMATE, 15805-73-9, 200 MG/KG BW ONCE AT 2 HR AND 1 D PRIOR TO CARCINOGEN DOSE (STUDY DURATION: 22 WK), Route [Inhibitor]: GAVAGE, Species: MOUSE, Strain/Sex: CD-1/FEMALE, Target Tissue: Type of Lesion: SKIN: PAPILLOMA, Dose [Carcinogen]: 11.5 UMOL IN 0.2 ML ACETONE ONCE, Promoter: 12-O-TETRADECANOYLPHORBOL-13-ACETATE, 16561-29-8) was 58%, 29%, 50%, not calculated.
